Reference: ChEMBL document CHEMBL1201862, “PubChem BioAssay data set” (2004)
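Step 1: Grow cells in 96-well plates. Step 2: Expose to compound for 48 hours at 5 concentrations. Step 3: Interpolate endpoints linearly; if unreached, use highest concentration. GI50 = concentration required for 50% inhibition of growth.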 Activity calls are given as the source filed them. Cut-off read from the data, not from the text of the source: active = GI50 up to about 1.1 µM and inactive = higher.

What was measured:
Test in all cases: DTP human tumour cell line panel, 48 h
NCI/ADR-RES = test system: NCI/ADR-RES
SR = test system: SR
K562 = test system: K562
MDA-N = test system: MDA-N
HL-60 = test system: HL-60
CAKI-1 = test system: CAKI-1
DU-145 = test system: DU-145
TK-10 = test system: TK-10
RPMI-8226 = test system: RPMI-8226
MDA-MB-435 = test system: MDA-MB-435
Hs-578T = test system: Hs-578T
SW-620 = test system: SW-620
OVCAR-4 = test system: OVCAR-4
UACC-62 = test system: UACC-62
HOP-92 = test system: HOP-92
SF-539 = test system: SF-539
SF-295 = test system: SF-295
SK-OV-3 = test system: SK-OV-3
SK-MEL-2 = test system: SK-MEL-2
NCI-H460 = test system: NCI-H460

Row | Structure (SMILES) | GI50 (NCI/ADR-RES) | GI50 (SR) | GI50 (K562) | GI50 (MDA-N) | GI50 (HL-60) | GI50 (CAKI-1) | GI50 (DU-145) | GI50 (TK-10) | GI50 (RPMI-8226) | GI50 (MDA-MB-435) | GI50 (Hs-578T) | GI50 (SW-620) | GI50 (OVCAR-4) | GI50 (UACC-62) | GI50 (HOP-92) | GI50 (SF-539) | GI50 (SF-295) | GI50 (SK-OV-3) | GI50 (SK-MEL-2) | GI50 (NCI-H460)
1 | CC(C)C(/C=C/c1ccccc1)=N\NC(=S)NN | 41.6 µM (inactive) | 0.546 µM (active) | 24 µM (inactive) | 26.6 µM (inactive) | 19.4 µM (inactive) | 39.4 µM (inactive) | > 100 µM (inactive) | > 100 µM (inactive) | 14.2 µM (inactive) | 49.5 µM (inactive) | 80.5 µM (inactive) | 66.5 µM (inactive) | 50.5 µM (inactive) | 35.3 µM (inactive) | 36.4 µM (inactive) | > 51.1 µM (inactive) | 67.6 µM (inactive) | > 94.4 µM (inactive) | > 55.6 µM (inactive) | 40.6 µM (inactive)
2 | NC1=NCCN1CC(=O)O [CYCLOCREATINE] | > 1000 µM (inactive) | > 1000 µM (inactive) | > 1000 µM (inactive) | > 10000 µM (inactive) | > 1000 µM (inactive) | > 10000 µM (inactive) | > 1000 µM (inactive) | > 1000 µM (inactive) | > 1000 µM (inactive) | > 1000 µM (inactive) | 4040 µM (inactive) | > 1000 µM (inactive) | > 1000 µM (inactive) | > 1000 µM (inactive) | > 1000 µM (inactive) | > 1000 µM (inactive) | > 10000 µM (inactive) | > 1000 µM (inactive) | > 1000 µM (inactive) | > 1000 µM (inactive)
3 | NC(CSC1c2ccccc2-c2ccccc21)C(=O)O (stereo not given) | > 100 µM (inactive) | 69.2 µM (inactive) | > 100 µM (inactive) | > 100 µM (inactive) | > 100 µM (inactive) | > 100 µM (inactive) | > 100 µM (inactive) | > 100 µM (inactive) | > 100 µM (inactive) | > 100 µM (inactive) | 23.9 µM (inactive) | > 100 µM (inactive) | > 100 µM (inactive) | > 100 µM (inactive) | > 100 µM (inactive) | > 100 µM (inactive) | > 100 µM (inactive) | > 100 µM (inactive) | > 100 µM (inactive) | > 100 µM (inactive)
